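Tested at 5 concentrations; 48 h exposure; 96-well plates; endpoints linearly interpolated, else capped at highest concentration. Here, GI50 denotes the concentration required for 50% inhibition of growth.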 Calls of active or inactive are those of the source. Rule as the data show it: active = GI50 up to about 1.1 µM and inactive = higher. Square brackets hold non-standard residues; d marks the D form. Peptide text beside a SMILES is read from it. * marks the point of attachment. ξ: configuration not given here. NMeY = CN[C@@H](Cc1ccc(O)cc1)C(=O)O; Cbz = O=C(OCc1ccccc1)*; ξA = CC(N)C(=O)O
Experiments:
Experiment in all cases: growth of human tumour cells (NCI), 48 h
ACHN = tested on: ACHN
COLO 205 = tested on: COLO 205
NCI-H226 = tested on: NCI-H226
LOX IMVI = tested on: LOX IMVI
SNB-75 = tested on: SNB-75
Malme-3M = tested on: Malme-3M
CAKI-1 = tested on: CAKI-1
HOP-92 = tested on: HOP-92
BT-549 = tested on: BT-549
NCI/ADR-RES = tested on: NCI/ADR-RES
NCI-H23 = tested on: NCI-H23
MDA-MB-231 = tested on: MDA-MB-231
NCI-H522 = tested on: NCI-H522
OVCAR-8 = tested on: OVCAR-8
HCC 2998 = tested on: HCC 2998
SF-539 = tested on: SF-539
EKVX = tested on: EKVX
UO-31 = tested on: UO-31
HCT-116 = tested on: HCT-116
T47D = tested on: T47D

Measured: GI50

COC(=O)[C@@H]1C[C@@]23CCCN4CC[C@@]5(c6cccc(OC)c6N(C=O)[C@]15CC2)[C@@H]43
inactive: ACHN > 100 µM | COLO 205 > 100 µM | NCI-H226 > 100 µM | LOX IMVI > 100 µM | SNB-75 78.7 µM | Malme-3M > 100 µM | CAKI-1 > 100 µM | HOP-92 > 100 µM | BT-549 > 100 µM | NCI/ADR-RES > 100 µM | NCI-H23 > 100 µM | MDA-MB-231 > 100 µM | NCI-H522 > 100 µM | OVCAR-8 > 100 µM | HCC 2998 > 100 µM | SF-539 > 100 µM | EKVX > 100 µM | UO-31 > 100 µM | HCT-116 > 100 µM | T47D > 100 µM

C=C1C(=O)OC2CC(C)C(C(CC(C)=O)OC(C)=O)=CCC12 (stereo not given)
inactive: ACHN 9.27 µM | COLO 205 6.82 µM | NCI-H226 34.1 µM | LOX IMVI 6.78 µM | SNB-75 23.1 µM | Malme-3M 2.02 µM | CAKI-1 3.16 µM | HOP-92 6.87 µM | BT-549 6.19 µM | NCI/ADR-RES 13.8 µM | NCI-H23 17.2 µM | MDA-MB-231 13.5 µM | NCI-H522 1.73 µM | OVCAR-8 18.9 µM | HCC 2998 10.5 µM | SF-539 15.3 µM | EKVX 11.8 µM | UO-31 16.2 µM | HCT-116 1.79 µM | T47D 20.4 µM

COc1ccc(C[C@@H](C(=O)N[C@@H](C)C(N)=O)N(C)C(=O)[C@@H]2CCCN2C(=O)[C@H](CC(C)C)NC(=O)C(C)NC(=O)OCc2ccccc2)cc1 (stereo not given in full) (Cbz-[ξA]LP[NMeY](Me)A-NH2)
inactive: ACHN > 100 µM | COLO 205 > 100 µM | NCI-H226 > 100 µM | LOX IMVI > 100 µM | SNB-75 66.1 µM | Malme-3M > 100 µM | CAKI-1 > 100 µM | HOP-92 > 100 µM | BT-549 > 100 µM | NCI/ADR-RES > 100 µM | NCI-H23 > 100 µM | MDA-MB-231 > 100 µM | NCI-H522 > 100 µM | OVCAR-8 > 100 µM | HCC 2998 > 100 µM | SF-539 > 100 µM | EKVX > 100 µM | UO-31 > 100 µM | HCT-116 > 100 µM | T47D > 100 µM
